Test results as given in patent US10202388B2, “Fused-ring compounds, pharmaceutical composition and uses thereof” (SHANGHAI DE NOVO PHARMATECH CO., LTD., priority 2015, dated 2019).

Experiments:
colon cancer MC38 cells = assay: Subcutaneous MC38 mouse colon cancer syngeneic model in C57BL/6 mice; assay type: in vivo; conditions: single agent, s.c. MC38 tumors in female C57BL/6 mice, FIG. 1
Experimental: Female mice (C57BL/6, 6-8 week old) were purchased from Shanghai Laboratory Animal Center, Chinese Academy of Sciences, Shanghai, China. Mice were housed under pathogen-free conditions with autoclaved rodent chow and water available ad libitum. Each mouse was inoculated s.c. with colon cancer MC38 cells in 0.1 mL PBS over the right lower flank. When the tumor volume reached 40 mm^3, mice were randomized based on initial tumor volume measurements and treated with either vehicle or compound 23A-3. Tumor volumes were measured with electronic digital caliper and calculated using the formula length (mm)×width (mm)^2/2 and expressed in mm^3. Student's t-test was used to evaluate the statistical significance of observed differences.

HeLa cell IDO1 = HeLa cell IDO1 (Homo sapiens (Human), UniProt P14902); assay: HeLa cell based IDO1 inhibition assay (kynurenine readout, IFN-γ induced); conditions: HeLa cells
Experimental: HeLa cell line was purchased from ATCC, cultured in MEM/EBSS medium supplemented with 10% FBS, penn-step (100,000 U/L), non-essential amino acid (0.1 Mm), sodium pyruvate (1.0 Mm). Cells were cultured at 37° C., 95% humidity and 5% CO2. […] The detailed experimental method is as follow:
25,000 HeLa cells were placed on 96-well plates. Each well contained 100 μl culture medium, subsequently IFN-γ and test compounds at specific concentrations (concentration range between 10 μM and 1 Nm, so that the final volume of culture medium was 200 μL) were added and IFN-γ was used to induce IDO1 expression. After incubation, 140 μL supernatant was transferred to 96-well plates. After adding 6.1 N TCA (10 μL), the plates were continuously incubated at 50° C. for 30 min, to hydrolyze N-formylkynurenine produced by IDO to kynurenine. The reaction solution was then centrifuged at 2500 rpm for 10 min to remove precipitate. 100 μL/well supernatant was then transferred to another 96-well plate. 100 μL of 2% (w/v) 4-N,N-dimethyl aminobenzaldehyde acetic acid solution was added and incubated at room temperature for 10 min. The yellow color derived from kynurenine was recorded by measuring absorbance at 480 nm using a microplate reader (TECAN Infinite M1000 Pro).

recombinant TDO2 = recombinant TDO2 (Homo sapiens (Human), UniProt P48775); assay: TDO2 enzymatic assay (UV absorption at 321 nm); assay type: biochemical; conditions: 50 nM TDO2, 200 μM tryptophan, 75 min
Experimental: The TDO2 enzymatic assay was performed by UV absorption using a recombinant TDO2 and L-Tryptophan substrate. The UV absorption signal at 321 nm is correlated with the amount of N-formylkynurenine reaction product of TDO2. The compounds were diluted in 10% DMSO and 5 μL of the dilution was added to a 100 μL reaction so that the final concentration of DMSO is 0.5% in all of reactions. All of the reactions were conducted at room temperature. The 100 μL reaction mixture in TDO2 Assay Buffer contains 50 nM TDO2, the indicated amount of the inhibitor, 200 μM tryptophan, and the coupled reaction components. The reaction mixture incubated for 75 min prior to reading the UV absorption signal. For the negative control (blank), 5 μl of the assay buffer was added instead of the TDO2.
(§1) Absorption signals were measured using a Tecan Infinite M1000 plate reader. Binding experiments were performed in duplicate at each concentration. The percent activity in the presence of each compound was calculated according to the following equation: % activity=[(A−Ab)/(At−Ab)]×100, where A=the absorption signal in the presence of the compound, Ab=the absorption signal of blank, At=the absorption signal in the absence of the compound. […] The IC50 was calculated using non-linear regression in Graph Pad Prism® 4.

Human recombinant IDO1 = Human recombinant IDO1 (Homo sapiens (Human), UniProt P14902); assay: IDO1 enzymatic assay (UV absorption at 321 nm); assay type: biochemical; conditions: human recombinant IDO1, 80 min incubation, room temperature; read-out: hIDO1 IC50
Experimental: The detailed experimental method is as follow:
The compounds described in this disclosure were dissolved in 10% DMSO to predefined concentration. All of the reactions were conducted at room temperature in this disclosure. Human recombinant IDO1 (BPS Bioscience) was added so that its concentration was 200 nm in the reaction buffer solution (200 μL). […] 10 μL test compound solution was added into the above reaction solution (200 μL), so that the final concentration of DMSO in all reaction wells was 0.5%. % concentration was volume %. After 80 min incubation of the reaction solution, the UV absorbance was measured using TECAN Infinite M1000 plate reader. For the negative control (blank), 10 μl of the assay buffer was added instead of the IDO1
All reagents (excluding human recombinant IDO1) were purchased from Sigma Aldrich, MO, USA.
as §1, with “The” for “Absorption signals were measured using a Tecan Infinite M1000 plate reader. Binding experiments were performed in duplicate at each concentration. The”

Human recombinant IDO1, sequence (P14902 whole entry): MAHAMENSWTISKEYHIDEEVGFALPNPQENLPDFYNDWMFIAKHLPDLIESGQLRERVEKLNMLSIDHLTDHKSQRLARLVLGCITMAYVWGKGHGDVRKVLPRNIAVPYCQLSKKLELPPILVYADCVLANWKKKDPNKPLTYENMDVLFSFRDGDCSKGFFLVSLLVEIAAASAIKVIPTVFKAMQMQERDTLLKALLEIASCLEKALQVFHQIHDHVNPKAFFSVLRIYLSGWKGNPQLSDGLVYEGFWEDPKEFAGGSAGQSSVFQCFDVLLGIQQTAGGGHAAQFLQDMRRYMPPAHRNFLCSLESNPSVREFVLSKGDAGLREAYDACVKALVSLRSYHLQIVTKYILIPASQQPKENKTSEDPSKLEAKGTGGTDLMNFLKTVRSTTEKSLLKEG
HeLa cell IDO1, sequence (P14902 whole entry): as above
recombinant TDO2, sequence (P48775 whole entry, species assumed): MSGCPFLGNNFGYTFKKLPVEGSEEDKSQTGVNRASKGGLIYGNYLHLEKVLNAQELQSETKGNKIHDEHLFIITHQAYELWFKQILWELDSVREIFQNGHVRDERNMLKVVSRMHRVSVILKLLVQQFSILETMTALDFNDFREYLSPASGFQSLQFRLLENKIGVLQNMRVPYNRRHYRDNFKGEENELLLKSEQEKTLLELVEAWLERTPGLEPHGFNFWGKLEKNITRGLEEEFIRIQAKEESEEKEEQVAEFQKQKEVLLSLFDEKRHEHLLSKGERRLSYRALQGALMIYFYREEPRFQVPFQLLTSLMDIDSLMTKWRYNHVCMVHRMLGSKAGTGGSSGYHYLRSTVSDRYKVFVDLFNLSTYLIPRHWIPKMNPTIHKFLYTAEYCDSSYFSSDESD

- IC50 (HeLa cell IDO1): < 100 nM
- IC50 (recombinant TDO2): < 500 nM
- IC50 (Human recombinant IDO1): < 100 nM
SMILES: OC1C2CC3CC1CC([C@@H](O)CC1c4c(F)cccc4-c4cncn41)(C3)C2 (stereo partly shown) [Compound 23A-3]
- tumor growth inhibition (mean tumor volume versus dosing days) (colon cancer MC38 cells): significant tumor growth inhibition effect
